Experimental data from PubChem BioAssay (NCI).
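1) Cells in 96-well plates. 2) Compound, 48 h, 5 concentrations. 3) Linear interpolation between surrounding doses. 4) Unreached endpoint = highest concentration. TGI marks complete inhibition of growth.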

Tests used:
Test in all cases: NCI-60 cell line screen, 48 h
786-0 renal = tested on: 786-0 renal
A498 renal = tested on: A498 renal
A549 NSCLC = tested on: A549 NSCLC
ACHN renal = tested on: ACHN renal
BT-549 breast = tested on: BT-549 breast
CAKI-1 renal = tested on: CAKI-1 renal
CCRF-CEM leukemia = tested on: CCRF-CEM leukemia
COLO 205 colon = tested on: COLO 205 colon
DU-145 prostate = tested on: DU-145 prostate
EKVX NSCLC = tested on: EKVX NSCLC
HCC-2998 colon = tested on: HCC-2998 colon
HCT-116 colon = tested on: HCT-116 colon
HCT-15 colon = tested on: HCT-15 colon
HL-60(TB) leukemia = tested on: HL-60(TB) leukemia
HOP-62 NSCLC = tested on: HOP-62 NSCLC
HOP-92 NSCLC = tested on: HOP-92 NSCLC
HS 578T breast = tested on: HS 578T breast
HT29 colon = tested on: HT29 colon
IGROV1 ovarian = tested on: IGROV1 ovarian
K-562 leukemia = tested on: K-562 leukemia
KM12 colon = tested on: KM12 colon
LOX IMVI melanoma = tested on: LOX IMVI melanoma
MALME-3M melanoma = tested on: MALME-3M melanoma
MCF7 breast = tested on: MCF7 breast
MDA-MB-231 breast = tested on: MDA-MB-231 breast
MDA-MB-435 = tested on: MDA-MB-435
MDA-N = tested on: MDA-N
MOLT-4 leukemia = tested on: MOLT-4 leukemia
NCI-H226 lung = tested on: NCI-H226 lung
NCI-H23 lung = tested on: NCI-H23 lung
NCI-H460 lung = tested on: NCI-H460 lung
NCI-H522 lung = tested on: NCI-H522 lung
NCI/ADR-RES ovarian = tested on: NCI/ADR-RES ovarian
OVCAR-3 ovarian = tested on: OVCAR-3 ovarian
OVCAR-4 ovarian = tested on: OVCAR-4 ovarian
OVCAR-5 ovarian = tested on: OVCAR-5 ovarian
OVCAR-8 ovarian = tested on: OVCAR-8 ovarian
PC-3 prostate = tested on: PC-3 prostate
RPMI-8226 leukemia = tested on: RPMI-8226 leukemia
RXF 393 renal = tested on: RXF 393 renal
SF-268 CNS = tested on: SF-268 CNS
SF-295 CNS = tested on: SF-295 CNS
SF-539 CNS = tested on: SF-539 CNS
SK-MEL-2 melanoma = tested on: SK-MEL-2 melanoma
SK-MEL-28 melanoma = tested on: SK-MEL-28 melanoma
SK-MEL-5 melanoma = tested on: SK-MEL-5 melanoma
SK-OV-3 ovarian = tested on: SK-OV-3 ovarian
SN12C renal = tested on: SN12C renal
SNB-19 CNS = tested on: SNB-19 CNS
SNB-75 CNS = tested on: SNB-75 CNS
SR leukemia = tested on: SR leukemia
SW-620 colon = tested on: SW-620 colon
T-47D breast = tested on: T-47D breast
TK-10 renal = tested on: TK-10 renal
U251 CNS = tested on: U251 CNS
UACC-257 melanoma = tested on: UACC-257 melanoma
UACC-62 melanoma = tested on: UACC-62 melanoma
UO-31 renal = tested on: UO-31 renal
M14 melanoma = tested on: M14 melanoma

CC(C)=CCOc1cc(NC(=S)c2ccsc2C)ccc1Cl
TGI (786-0 renal): > 100 µM
TGI (A498 renal): > 100 µM
TGI (A549 NSCLC): > 100 µM
TGI (ACHN renal): > 100 µM
TGI (BT-549 breast): > 100 µM
TGI (CAKI-1 renal): > 100 µM
TGI (CCRF-CEM leukemia): > 100 µM
TGI (COLO 205 colon): > 100 µM
TGI (DU-145 prostate): > 100 µM
TGI (EKVX NSCLC): > 100 µM
TGI (HCC-2998 colon): 88 µM
TGI (HCT-116 colon): > 100 µM
TGI (HCT-15 colon): > 100 µM
TGI (HL-60(TB) leukemia): > 100 µM
TGI (HOP-62 NSCLC): 58.9 µM
TGI (HOP-92 NSCLC): 37.1 µM
TGI (HS 578T breast): > 100 µM
TGI (HT29 colon): > 100 µM
TGI (IGROV1 ovarian): 89.3 µM
TGI (K-562 leukemia): > 100 µM
TGI (KM12 colon): > 100 µM
TGI (LOX IMVI melanoma): > 100 µM
TGI (MALME-3M melanoma): > 100 µM
TGI (MCF7 breast): > 100 µM
TGI (MDA-MB-231 breast): 83.4 µM
TGI (MDA-MB-435): > 100 µM
TGI (MDA-N): > 100 µM
TGI (MOLT-4 leukemia): > 100 µM
TGI (NCI-H226 lung): > 100 µM
TGI (NCI-H23 lung): > 100 µM
TGI (NCI-H460 lung): > 100 µM
TGI (NCI-H522 lung): > 100 µM
TGI (NCI/ADR-RES ovarian): > 100 µM
TGI (OVCAR-3 ovarian): > 100 µM
TGI (OVCAR-4 ovarian): > 100 µM
TGI (OVCAR-5 ovarian): > 100 µM
TGI (OVCAR-8 ovarian): > 100 µM
TGI (PC-3 prostate): > 100 µM
TGI (RPMI-8226 leukemia): 53.1 µM
TGI (RXF 393 renal): 80.6 µM
TGI (SF-268 CNS): > 100 µM
TGI (SF-295 CNS): > 100 µM
TGI (SF-539 CNS): > 100 µM
TGI (SK-MEL-2 melanoma): > 100 µM
TGI (SK-MEL-28 melanoma): > 100 µM
TGI (SK-MEL-5 melanoma): > 100 µM
TGI (SK-OV-3 ovarian): > 100 µM
TGI (SN12C renal): > 100 µM
TGI (SNB-19 CNS): > 100 µM
TGI (SNB-75 CNS): 66.4 µM
TGI (SR leukemia): 84.4 µM
TGI (SW-620 colon): > 100 µM
TGI (T-47D breast): > 100 µM
TGI (TK-10 renal): > 100 µM
TGI (U251 CNS): > 100 µM
TGI (UACC-257 melanoma): > 100 µM
TGI (UACC-62 melanoma): > 100 µM
TGI (UO-31 renal): > 100 µM

O=CC(O)C(O)C(O)C1CNC(=S)O1 (stereo not given)
TGI (786-0 renal): > 100 µM
TGI (A498 renal): > 100 µM
TGI (A549 NSCLC): > 100 µM
TGI (ACHN renal): > 100 µM
TGI (BT-549 breast): > 100 µM
TGI (CAKI-1 renal): > 100 µM
TGI (CCRF-CEM leukemia): > 100 µM
TGI (COLO 205 colon): > 100 µM
TGI (DU-145 prostate): > 100 µM
TGI (EKVX NSCLC): > 100 µM
TGI (HCT-116 colon): > 100 µM
TGI (HCT-15 colon): > 100 µM
TGI (HL-60(TB) leukemia): > 100 µM
TGI (HOP-62 NSCLC): > 100 µM
TGI (HOP-92 NSCLC): > 100 µM
TGI (HS 578T breast): > 100 µM
TGI (HT29 colon): > 100 µM
TGI (IGROV1 ovarian): > 100 µM
TGI (K-562 leukemia): > 100 µM
TGI (KM12 colon): > 100 µM
TGI (LOX IMVI melanoma): > 100 µM
TGI (M14 melanoma): > 100 µM
TGI (MALME-3M melanoma): > 100 µM
TGI (MCF7 breast): > 100 µM
TGI (MDA-MB-231 breast): > 100 µM
TGI (MDA-MB-435): > 100 µM
TGI (MDA-N): > 100 µM
TGI (MOLT-4 leukemia): > 100 µM
TGI (NCI-H226 lung): > 100 µM
TGI (NCI-H23 lung): > 100 µM
TGI (NCI-H460 lung): > 100 µM
TGI (NCI-H522 lung): > 100 µM
TGI (NCI/ADR-RES ovarian): > 100 µM
TGI (OVCAR-3 ovarian): > 100 µM
TGI (OVCAR-4 ovarian): > 100 µM
TGI (OVCAR-5 ovarian): > 100 µM
TGI (OVCAR-8 ovarian): > 100 µM
TGI (PC-3 prostate): > 100 µM
TGI (RPMI-8226 leukemia): > 100 µM
TGI (RXF 393 renal): > 100 µM
TGI (SF-268 CNS): > 100 µM
TGI (SF-295 CNS): > 100 µM
TGI (SF-539 CNS): > 100 µM
TGI (SK-MEL-2 melanoma): > 100 µM
TGI (SK-MEL-28 melanoma): > 100 µM
TGI (SK-MEL-5 melanoma): > 100 µM
TGI (SK-OV-3 ovarian): > 100 µM
TGI (SN12C renal): > 100 µM
TGI (SNB-75 CNS): > 100 µM
TGI (SR leukemia): > 100 µM
TGI (SW-620 colon): > 100 µM
TGI (T-47D breast): > 100 µM
TGI (TK-10 renal): > 100 µM
TGI (U251 CNS): > 100 µM
TGI (UACC-257 melanoma): > 100 µM
TGI (UACC-62 melanoma): > 100 µM
TGI (UO-31 renal): > 100 µM
